Like-named read-outs stand apart in the source and are kept apart here.
Test system: 8XTBD luciferase reporter (YAP reporter) in HEK293T cells
Test: YAP Reporter Assay
Assay type: cell-based
Details: Homo sapiens, HEK-293T
Description: HEK293T cells stably transfected with 8XTBD luciferase reporter and pRLTK in 384-well plates were treated with the test compounds, starting from 3 μM (final concentration in assay plate), 1:3 dilution, and 10 points in quadruplicates. Post 24-hr incubation with compounds at 37° C. and 5% CO2, cells were lysed and 8XTBD-driven firefly luciferase and control TK-driven renilla luciferase activities were measured using Promega Dual-Luciferase Reporter Assay System.
Reagents: The reagents used for this study are: DMEM: Invitrogen #11960077, Dual-Glo Luciferase Assay System: Promega-E2980, Puromycin Dihydrochloride: Invitrogen-A1113803, 384-well plate: PerkinElmer-6007480, L-GLUTAMINE: Invitrogen-25030164, Hygromycin B: Invitrogen-10687010, and Penicillin-Streptomycin: Merk-TMS-AB2-C
Media: The media used for this assay were: Culture Medium: DMEM+1 ug/mL puromycin+200 ug/mL hygromycin (with 10% FBS+1 mM L-glutamine); and Assay Medium: DMEM (with 10% FBS+1 mM L-glutamine+1×P/S).
Cell Plating: The appropriate media was warmed at 37° C. by water bath: Culture Medium, Assay Medium, 1*D-PBS, 0.05% trypsin-EDTA. The cells were trypsinized after removing all media, then washed with 1*sterile D-PBS and then with 2 ml 0.05% trypsin-EDTA. The cells were then incubated at RT for one minute. Then 10 ml/75 cm2 flask Assay Medium was added to each flask. Using a 10 ml pipette, the cells were then gently resuspended in the media, until the clumps completely disappeared. The cells were then transferred into 50 ml centrifuge tubes and were centrifuged at 800 rpm for 5 mins. The medium was removed and the cells were resuspended with Assay Medium. An aliquot of cells was used to count the cell density (cells/ml). The cell suspension was then diluted with Assay Medium to a concentration of 6×10^4 cells/ml. 50 ul cells suspension was then plated to 384-well plate (PerkinElmer-6007480), 3×10^3 cells/well and the cells were incubated in an incubator at 37° C. 5% CO2.
Compound Treatment: In the afternoon (incubation of the plate with 3-4 hrs), the test compounds were added by Echo, starting from 3 uM (final concentration in the assay plate), 1:3 dilution, 10 points, quadruplicates. The plate was placed at 37° C. 5% CO2 incubator for 24 hrs.
Detection: The Dual-Glo Luciferase Reagent was prepared by transferring the contents of one bottle of Dual-Glo Luciferase Buffer to one bottle of Dual-Glo Luciferase Substrate to create the Dual-Glo Luciferase Reagent. Mixing was performed by inversion until the substrate was thoroughly dissolved. After mixing, the reagent was aliquoted into 15 ml tubes. In the afternoon (24 hrs post compound treatment), the DMEM+ medium in the 384 well plates were aspirated by Microplate Washer.
Measuring firefly luciferase activity: 20 ul Dual-Glo Luciferase Reagent was added to the 384-well plates. The plates were protected from light to prevent interference with the assay. The plates were shaken for 1 min followed centrifuging plates at 1000 rpm for 30 seconds. After waiting at least 10 minutes, the firefly luminescence was measured by Envision.
Measuring renilla luciferase activity: 20 ul Stop-Glo Reagent was added to the 384-well plates. The plates were shaken for 1 min and then centrifuged at 1000 rpm for 30 seconds. After waiting at least 10 minutes, the renilla luminescence was measured by Envision.
Compound IC50 and maximum inhibition on the firefly luciferase and renilla luciferase activities were reported separately.

[1] = HEK293T cells stably transfected with 8XTBD luciferase reporter and pRLTK, 24-hr incubation, top concentration 3 μM, read-out: Firefly Luciferase IC50
[2] = 24 h, read-out: Firefly Luciferase IC50 (μM)

Row | Structure (SMILES) | IC50 [1] | IC50 [2]
1 | C[C@H](CN(C)C)NC(=O)c1ccc2c(-c3ccc(C(F)(F)F)cc3)cccc2c1 [Compound 65, (R)—N-(1-(dimethylamino)propan-2-yl)-5-(4-(trifluoromethyl)phenyl)-2-naphthamide] | 1 to 3 µM | –
2 | C[C@@H](CN1CCCC1)NC(=O)c1ccc2c(-c3ccc(C(F)(F)F)cc3)cccc2c1 [Compound 66, (S)—N-(1-(pyrrolidin-1-yl)propan-2-yl)-5-(4-(trifluoromethyl)phenyl)-2-naphthamide] | 0.1 to 1 µM | –
3 | C[C@H](CN1CCCC1)NC(=O)c1ccc2c(-c3ccc(C(F)(F)F)cc3)cccc2c1 [Compound 67, (R)—N-(1-(pyrrolidin-1-yl)propan-2-yl)-5-(4-(trifluoromethyl)phenyl)-2-naphthamide] | 0.1 to 1 µM | –
4 | CC(C)NC(=O)c1ccc2c(-c3ccc(C(F)(F)F)cc3)cc3scnc3c2c1 [Compound 68, N-isopropyl-5-(4-(trifluoromethyl)phenyl)naphtho[1,2-d]thiazole-8-carboxamide] | – | < 0.1 µM
5 | C[C@H](CN1CCOCC1)NC(=O)c1ccc2c(-c3ccc(C(F)(F)F)cc3)cccc2c1 [Compound 70, (R)—N-(1-morpholinopropan-2-yl)-5-(4-(trifluoromethyl)phenyl)-2-naphthamide] | 1 to 3 µM | –
6 | CC(C)NC(=O)c1ccc2c(-c3ccc(C(F)(F)F)cc3)cc3ocnc3c2c1 [Compound 71, N-isopropyl-5-(4-(trifluoromethyl)phenyl)naphtho[1,2-d]oxazole-8-carboxamide] | < 0.1 µM | –
7 | CC(C)NC(=O)c1cnc2c(-c3ccc(C(F)(F)F)cc3)cc(F)c(F)c2c1 [Compound 72, 5,6-Difluoro-N-isopropyl-8-(4-(trifluoromethyl)phenyl)quinoline-3-carboxamide] | – | < 0.1 µM
8 | CS(=O)(=O)NC(=O)c1cnc2c(-c3ccc(C(F)(F)F)cc3)cc(F)c(F)c2c1 [Compound 73, 5,6-Difluoro-N-(methylsulfonyl)-8-(4-(trifluoromethyl)phenyl)quinoline-3-carboxamide] | 0.1 to 1 µM | –
9 | COCC(=O)NCCOCCOCCNC(=O)c1ccc2c(-c3ccc(C(F)(F)F)cc3)cccc2c1 [Compound 76, N-(4-oxo-2,8,11-trioxa-5-azatridecan-13-yl)-5-(4-(trifluoromethyl)phenyl)-2-naphthamide] | 0.1 to 1 µM | –
10 | COCCC(=O)NCCOCCOCCNC(=O)c1ccc2c(-c3ccc(C(F)(F)F)cc3)cccc2c1 [Compound 77, N-(5-oxo-2,9,12-trioxa-6-azatetradecan-14-yl)-5-(4-(trifluoromethyl)phenyl)-2-naphthamide] | 0.1 to 1 µM | –
11 | CCS(=O)(=O)NC(=O)c1ccc2c(-c3ccc(C(F)(F)F)cc3)cccc2c1 [Compound 78, N-(ethylsulfonyl)-5-(4-(trifluoromethyl)phenyl)-2-naphthamide] | 0.1 to 1 µM | –
12 | CCOc1cc(-c2ccc(C(F)(F)F)cc2)c2ncc(C(=O)NC(C)C)cc2c1 [Compound 80, 6-ethoxy-N-isopropyl-8-(4-(trifluoromethyl)phenyl)quinoline-3-carboxamide] | – | < 0.1 µM
13 | CCOc1cc(-c2ccc(C(F)(F)F)cc2)c2ncc(C(=O)NS(C)(=O)=O)cc2c1 [Compound 81, 6-ethoxy-N-(methylsulfonyl)-8-(4-(trifluoromethyl)phenyl)quinoline-3-carboxamide] | 0.1 to 1 µM | –
14 | C[C@@H](CO)NC(=O)c1ccc2c(-c3ccc(C(F)(F)F)cc3)cccc2c1 [Compound 84, (S)—N-(1-hydroxypropan-2-yl)-5-(4-(trifluoromethyl)phenyl)-2-naphthamide] | < 0.1 µM | –
15 | C[C@H](CO)NC(=O)c1ccc2c(-c3ccc(C(F)(F)F)cc3)cccc2c1 [Compound 85, (R)—N-(1-hydroxypropan-2-yl)-5-(4-(trifluoromethyl)phenyl)-2-naphthamide] | < 0.1 µM | –
16 | O=C(NCCO)c1ccc2c(-c3ccc(C(F)(F)F)cc3)cccc2c1 [Compound 86, N-(2-hydroxyethyl)-5-(4-(trifluoromethyl)phenyl)-2-naphthamide] | < 0.1 µM | –

Row | Structure (SMILES) | IC50 [1] | IC50 [2]
17 | CC(C)NC(=O)c1ccc2c(-c3ccc(C(F)(F)F)cc3)ccc(C(F)(F)F)c2c1 [Compound 87, N-isopropyl-8-(trifluoromethyl)-5-(4-(trifluoromethyl)phenyl)-2-naphthamide] | 0.1 to 1 µM | –
18 | CC(C)NC(=O)c1ccc2c(-c3ccc(C(F)(F)F)cc3)ccc(I)c2c1 [Compound 88, 8-iodo-N-isopropyl-5-(4-(trifluoromethyl)phenyl)-2-naphthamide] | 0.1 to 1 µM | –
19 | COC[C@H](C)NC(=O)c1ccc2c(-c3ccc(C(F)(F)F)cc3)cccc2c1 [Compound 89, (S)—N-(1-methoxypropan-2-yl)-5-(4-(trifluoromethyl)phenyl)-2-naphthamide] | < 0.1 µM | –
20 | C[C@H](NC(=O)c1ccc2c(-c3ccc(C(F)(F)F)cc3)cccc2c1)c1ccccn1 [Compound 90, (S)—N-(1-(pyridin-2-yl)ethyl)-5-(4-(trifluoromethyl)phenyl)-2-naphthamide] | < 0.1 µM | –
21 | C[C@@H](NC(=O)c1ccc2c(-c3ccc(C(F)(F)F)cc3)cccc2c1)c1ccccn1 [Compound 91, (R)—N-(1-(pyridin-2-yl)ethyl)-5-(4-(trifluoromethyl)phenyl)-2-naphthamide] | 0.1 to 1 µM | –
22 | CNCC(C)NC(=O)c1ccc2c(-c3ccc(C(F)(F)F)cc3)cccc2c1 (stereo not shown) [Compound 92, N-(1-(methylamino)propan-2-yl)-5-(4-(trifluoromethyl)phenyl)-2-naphthamide] | 0.1 to 1 µM | –
23 | COC[C@@H](C)NC(=O)c1ccc2c(-c3ccc(C(F)(F)F)cc3)cccc2c1 [Compound 93, (R)—N-(1-methoxypropan-2-yl)-5-(4-(trifluoromethyl)phenyl)-2-naphthamide] | < 0.1 µM | –
24 | CC(C)NC(=O)c1cnc2c(-c3ccc(C(F)(F)F)cc3)cc(Cl)c(Cl)c2c1 [Compound 94, 5,6-Dichloro-N-isopropyl-8-(4-(trifluoromethyl)phenyl)quinoline-3-carboxamide] | < 0.1 µM | –
25 | CC(C)NC(=O)c1ccc2c(-c3ccc(C(F)(F)F)cc3)cc(N)c(O)c2c1 [Compound 95, 7-amino-8-hydroxy-N-isopropyl-5-(4-(trifluoromethyl)phenyl)-2-naphthamide] | 0.1 to 1 µM | –
26 | CS(=O)(=O)NC(=O)c1cnc2c(-c3ccc(C(F)(F)F)cc3)cc(Cl)c(Cl)c2c1 [Compound 96, 5,6-dichloro-N-(methylsulfonyl)-8-(4-(trifluoromethyl)phenyl)quinoline-3-carboxamide] | 0.1 to 1 µM | –
27 | COc1cc(-c2ccc(C(F)(F)F)cc2)c2ncc(C(=O)NC(C)C)cc2c1 [Compound 97, N-isopropyl-6-methoxy-8-[4-(trifluoromethyl)phenyl]quinoline-3-carboxamide] | < 0.1 µM | –
28 | COc1cc(-c2ccc(C(F)(F)F)cc2)c2ncc(C(=O)N[C@H](C)CO)cc2c1 [Compound 98, N-[(1R)-2-hydroxy-1-methyl-ethyl]-6-methoxy-8-[4-(trifluoromethyl)phenyl]quinoline-3-carboxamide] | < 0.1 µM | –
29 | C[C@H](CO)NC(=O)c1cnc2c(-c3ccc(C(F)(F)F)cc3)cccc2c1 [Compound 99, (R)—N-(1-hydroxypropan-2-yl)-8-(4-(trifluoromethyl)phenyl)quinoline-3-carboxamide] | < 0.1 µM | –
30 | COC[C@@H](C)NC(=O)c1cnc2c(-c3ccc(C(F)(F)F)cc3)cccc2c1 [Compound 100, (R)—N-(1-methoxypropan-2-yl)-8-(4-(trifluoromethyl)phenyl)quinoline-3-carboxamide] | 0.1 to 1 µM | –
31 | C[C@@H](NC(=O)c1cnc2c(-c3ccc(C(F)(F)F)cc3)cccc2c1)c1ccccn1 [Compound 101, (R)—N-(1-(pyridin-2-yl)ethyl)-8-(4-(trifluoromethyl)phenyl)quinoline-3-carboxamide] | 0.1 to 1 µM | –

From US11866431B2, “Bicyclic compounds” (Vivace Therapeutics, Inc., priority 2018, dated 2024)
